US9040501B2, “Compositions and methods for treating cancer” (Eisai Inc., priority 2009, dated 2015)
Like-named read-outs stand apart in the source and are kept apart here.

Legend:
[1] = molecular target: T1, cytidine deaminase (CDA) (Homo sapiens (Human), UniProt P32320); assay: Effect of ER-876437 on the half-life of decitabine in the presence of CDA in Tris-HCl buffer at 37° C.; assay type: biochemical
Description: The solvent delivery system employed an HPLC quaternary pump, low pressure mixing. An autosampler having a variable loop, 0.1 to 100 μL range and temperature controlled thermostat was used. […] Degassed HPLC grade water and degassed HPLC grade acetonitrile were used as solvents for the mobile phases. […] [table]

[2] = test system: murine lymphoma L1210; details: ER-876437 10 mg/kg/Veh
Description: Or, a stock of L1210 ascites in BSA solution was diluted to 1×10^4 cells/0.1 ml for use in the study mice.
(§1) The mice were prepared with intravenous (IV) injection of L1210 ascites (prepared as described above) one day prior to commencing the dosing. […] The total IV injection for all mice took about 50 minutes.
All solutions were stored on ice while dosing. Mice were dosed (intraperitoneally (IP) or per os (orally, PO)) twice a day (8 hours apart) for 4 consecutive days.
(§2) Dead mice were autopsied and observed for the presence of tumors in organs.

[3] = Pharmacokinetics in mice after IV and PO administrations; assay type: in vivo, male BALB-c mice; details: for concentration at 0.167 hr / concentration at 0.5 hr / concentration at 1 hr / concentration at 2 hr / concentration at 4 hr / concentration at 6 hr / concentration at 8 hr / concentration at 24 hr: read-out: Plasma concentrations
Description: […]. All doses were prepared in phosphate buffered saline (PBS) and were administered at a volume of 5 mL/kg. Five mice per group were used in these studies. Blood samples were taken serially from the tail vein of each mouse at predetermined timepoints. Blood samples from all mice in each group were pooled together prior to processing for plasma. The pooled blood samples were spun down within 30-60 minutes after withdrawal and the plasma was harvested and frozen for assay. After preparation and extraction the samples were assayed by LC/MS/MS.

[4] = molecular target: T1, cytidine deaminase (CDA); assay: Effect of ER-876437 on the half-life of cytarabine in the presence of CDA in Tris-HCl buffer at 37° C.
[5] = test system: A2780 human ovarian cancer xenograft; assay: In vivo efficacy study in A2780 human ovarian cancer xenograft model; design: species or system female nude mice; details: qdx5 for two weeks
Description: Animals were dosed daily from Monday to Friday for two weeks.
Female nude mice (NU/NU, strain code 088, 6 weeks old, Charles River Laboratory) were implanted subcutaneously with 5×10^6 A2780 cancer cells per mouse. On day 13 when the tumors were approximately 150 mm^3, treatment started as described in Table 9.
Tumor volume and regressions were followed over time. Tumor volume was calculated by (length×width^2)/2. Note that a complete regression was defined as no measurable tumor for at least 3 consecutive measurements; while a partial regression was defined as tumor shrinkage to equal or less than 50% of original tumor volume for 3 consecutive measurements. Tumor growth delay (TGD) was defined as the median number of days for the control and treatment groups to grow to 342.14 mm^3. The average tumor volume on the first day of treatment (day 13) is 171.07 mm^3.

[6] = test system: murine lymphoma L1210
Description: Preparation of L1210 Cells: L1210 ascitic cells were prepared by passaging them in mice at least three times as follows. Each CD2F1 female mouse was intraperitoneally (IP) injected with about 10^5 L1210 ascitic cells. After one week, the mouse was sacrificed (asphyxiation via CO2). The mouse was placed on its back, its belly surface was cleaned with alcohol wipes, and a small incision was made into the peritoneal cavity. […] Diluted ascites (diluted 1:10 again) were counted on a hematocytometer and the number of cells per mL was calculated. About 10^5 L1210 cells were used for a subsequent passage for another mouse passage. Or, a stock of L1210 ascites in BSA solution was diluted to 1×10^4 cells/0.1 ml for use in the study mice.
as §1
Decitabine was prepared fresh twice a day, just prior to dosing. All solutions were stored on ice while dosing. Mice were dosed (intraperitoneally (IP) or per os (orally, PO)) twice a day (8 hours apart) for 4 consecutive days.
as §2
Preparation of study mice with IV injection of L1210 ascites took about 60 minutes. […] All solutions were stored on ice while dosing. Mice were dosed (IP or PO) twice a day (7 or 8 hours apart) for 4 consecutive days.

[7] = molecular target: T1, cytidine deaminase (CDA); assay: Effect of ER-876437 on the half-life of gemcitabine in the presence of CDA in Tris-HCl buffer at 37° C.; assay type: biochemical
Description: This Example employed a Phenomenex Luna C18(2) HPLC column (100 Å 4.6×250 mm 5 μm). The solvent delivery system employed an HPLC quaternary pump, low pressure mixing. An autosampler having a variable loop, 0.1 to 100 μL range and temperature controlled thermostat was used. The UV detector can employ a dual wavelength detector, a diode array detector, a variable wavelength detector or equivalent, and can be recorded using chromatographic software (e.g., Waters Empower 2 Build 2154, Agilent ChemStation software version A.09.03 or higher for HPLC or equivalent). The analytical balance employed was capable of weighing ±0.1 mg. Degassed HPLC grade water and degassed HPLC grade acetonitrile were used as solvents for the mobile phases.
Gemcitabine Standard Control: 0.2 mM gemcitabine control was prepared by weighing […] of gemcitabine in a 10 mL volumetric flask. […] Solution was labeled as gemcitabine stock solution.

[8] = male, BALB-c, mouse, plasma, 10 mg/kg IV
[9] = male, BALB-c, mouse, plasma, 10 mg/kg PO
[10] = ER-876437 1.0 mg/kg/Veh, on autopsy

T1 sequence (P32320 whole entry): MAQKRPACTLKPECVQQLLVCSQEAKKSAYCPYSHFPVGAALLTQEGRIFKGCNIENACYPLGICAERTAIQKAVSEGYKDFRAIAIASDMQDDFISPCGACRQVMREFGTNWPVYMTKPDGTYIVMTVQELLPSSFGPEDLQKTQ

Question: What does the source list for `O=C1NCC=CCN1[C@@H]1O[C@H](CO)[C@@H](O)C1(F)F` [ER-876437, 1-((2R,4R,5R)-3,3-difluoro-4-hydroxy-5-(hydroxymethyl)tetrahydrofuran-2-yl)-3,4-dihydro-1H-1,3-diazepin-2(7H)-one]?
Answer: inhibition of the effect of CDA on T1/2 of decitabine ([1]; Tris-HCl buffer at 37° C.): nearly completely inhibited; levels of ER-876437 ([1]; after 12 hours exposure to CDA with decitabine): not affected; Mean Liver wts (g) ± SD ([2]; on autopsy): 2.02 ± 0.07 g; Mean Spleen wts (g) ± SD ([2]; on autopsy): 0.37 ± 0.04 g; Mean Survival (days) ± SD ([2]; twice a day (8 hours apart), 4 days): 7.6 ± 0.89 days; % ILS (Increased Life Span) ([2]; vs vehicle group): 2.70%; t1/2 after PO administration relative to IV administration ([3]; 10 mg/kg): roughly 2.5 fold; AUC0-∞ ([3]; 10 mg/kg IV): 13071 ng·h/mL; AUC0-∞/D ([3]; 10 mg/kg IV): 1307 ng · hr/mL/D; AUCExtrap ([3]; 10 mg/kg IV): 1.4%; CL ([3]; 10 mg/kg IV): 12.8 mL/min/kg; dose-normalized exposures (AUC0-∞) ([3]; 10 mg/kg IV): 1310 ng·h/mL per mg/kg; t1/2 ([3]; 10 mg/kg IV): 6.1 h; AUC0-∞ ([3]; 10 mg/kg PO): 9499 ng·h/mL; AUC0-∞/D ([3]; 10 mg/kg PO): 950 ng · hr/mL/D; AUC(0-t) ([3]; 10 mg/kg PO): 8579 ng·h/mL; AUCExtrap ([3]; 10 mg/kg PO): 9.7%; t1/2 ([3]; 10 mg/kg PO): 16.3 h; AUC(0-inf) [3, 8]: 13100 ng·h/mL; clearance [3, 8]: 12.8 mL/min/kg; half-life [3, 8]: 6.1 h; concentration at 0.167 hr [3, 8]: 11800 ng/mL; concentration at 0.5 hr [3, 8]: 7690 ng/mL; concentration at 1 hr [3, 8]: 3470 ng/mL; concentration at 2 hr [3, 8]: 1450 ng/mL; concentration at 4 hr [3, 8]: 214 ng/mL; concentration at 6 hr [3, 8]: 184 ng/mL; concentration at 8 hr [3, 8]: 64 ng/mL; concentration at 24 hr [3, 8]: 20 ng/mL; AUC(0-t) ([3]; male, BALB-c, mouse, plasma, 10 mg/kg IV, read-out: AUC0-t): 12900 ng·h/mL; Vd ([3]; male, BALB-c, mouse, plasma, 10 mg/kg IV, read-out: Vss): 1.64 L/kg; AUC(0-inf) [3, 9]: 9500 ng·h/mL; Cmax [3, 9]: 8600 ng/mL; half-life [3, 9]: 16.3 h; bioavailability ([3]; male, BALB-c, mouse, plasma, 10 mg/kg PO vs IV, calculated based on AUC0-t, read-out: F (bioavailability)): 66.5%; concentration at 0.167 hr [3, 9]: 8600 ng/mL; concentration at 0.5 hr [3, 9]: 3720 ng/mL; concentration at 1 hr [3, 9]: 4180 ng/mL; concentration at 2 hr [3, 9]: 1140 ng/mL; concentration at 4 hr [3, 9]: 146 ng/mL; concentration at 6 hr [3, 9]: 36 ng/mL; concentration at 8 hr [3, 9]: 103 ng/mL; concentration at 24 hr [3, 9]: 39 ng/mL; AUC(0-t) ([3]; male, BALB-c, mouse, plasma, 10 mg/kg PO, read-out: AUC0-t): 8580 ng·h/mL; cytarabine remaining ([4]; CDA plus ER-876437 in the incubation mixture, after 52 h): greater than 95%; inhibition of the effect of CDA on T1/2 of cytarabine ([4]; Tris-HCl buffer at 37° C.): nearly completely inhibited; levels of ER-876437 ([4]; after 52 hours of exposure to CDA with cytarabine): not affected; regressions or tumor free survivors at day 41 ([5]; gemcitabine 1 mg/kg PO alone or ER-876437 10 mg/kg PO alone): no regressions or tumor free survivors; effect on tumor growth (FIG. 3) ([5]; gemcitabine 1 mg/kg PO and/or ER-876437 10 mg/kg PO (30 minutes prior)): no effect at all; TGD (tumor growth delay) ([5]; gemcitabine 1 mg/kg PO and/or ER-876437 10 mg/kg PO (30 minutes prior), delay vs vehicle to reach 342.14 mm^3): 2 days; Mean Liver wts (g) ± SD [6, 10]: 2.04 ± 0.15 g; Mean Spleen wts (g) ± SD [6, 10]: 0.32 ± 0.02 g; Mean Survival (days) ± SD ([6]; ER-876437 1.0 mg/kg/Veh, twice a day (7 hours apart), 4 days): 8.4 ± 0.55 days; % ILS (Increased Life Span) ([6]; ER-876437 1.0 mg/kg/Veh, vs vehicle group): 5.00%; minimally effective dose ([6]; with 0.1 mg/kg decitabine PO, L1210 survival model): 0.1 mg/kg; gemcitabine remaining ([7]; CDA plus ER-876437 in the incubation mixture, after 7 h): greater than 95%; inhibition of the effect of CDA on T1/2 of gemcitabine ([7]; Tris-HCl buffer at 37° C.): nearly completely inhibited; levels of ER-876437 ([7]; after 7 hours of exposure to CDA with gemcitabine): not affected
